According to US10450297B2, “Sulfonyl amide derivatives for the treatment of abnormal cell growth” (Pfizer, Inc., priority 2007, dated 2019):

Biological target: FAK kinase (catalytic construct FAK(410-689)) (Homo sapiens (Human), UniProt Q05397)
Assay: FAKcd kinase ELISA (inhibition of poly-glu-tyr phosphorylation by FAK(410-689))
Type: biochemical
Settings: 50 μM final ATP

Sequence of FAK kinase (catalytic construct FAK(410-689)) (Q05397 410-689): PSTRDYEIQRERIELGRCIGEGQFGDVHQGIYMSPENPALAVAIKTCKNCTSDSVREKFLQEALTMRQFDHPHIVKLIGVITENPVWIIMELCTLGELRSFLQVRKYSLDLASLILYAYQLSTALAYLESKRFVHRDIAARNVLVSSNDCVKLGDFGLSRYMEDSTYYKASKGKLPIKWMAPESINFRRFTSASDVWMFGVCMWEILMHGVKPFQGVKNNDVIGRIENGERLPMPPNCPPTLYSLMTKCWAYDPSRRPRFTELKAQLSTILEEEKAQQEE

Compound	IC50 [nM]
CN(c1nccnc1CNc1nc(Nc2ccc(C(O)CO)cc2)ncc1C(F)(F)F)S(C)(=O)=O (centres unmarked) [Compound 411, N-[3-({[2-{[4-(1,2-dihydroxyethyl)phenyl]amino}-5-(trifluoromethyl)pyrimidin-4-yl]amino}methyl)pyrazin-2-yl]-N-methylmethane-sulfonamide]	0.941
CN(c1cccnc1CNc1nc(Nc2ccc(C(N)=O)nc2)ncc1C(F)(F)F)S(C)(=O)=O [Compound 377, 5-({4-[({3-[methyl(methylsulfonyl)amino]pyridin-2-yl}methyl)amino]-5-(trifluoromethyl)pyrimidin-2-yl}amino)pyridine-2-carboxamide]	15.3
CN(c1ncccc1CNc1nc(Nc2ccc(C#N)cc2)ncc1C(F)(F)F)S(C)(=O)=O [Compound 95, N-{3-[({2-[(4-cyanophenyl)amino]-5-(trifluoromethyl)pyrimidin-4-yl}amino)methyl]pyridin-2-yl}-N-methylmethane-sulfonamide]	0.6
Cc1cnc(N(C)S(C)(=O)=O)c(CNc2nc(Nc3ccc(C(N)=O)cc3)ncc2C(F)(F)F)c1 [Compound 82, 4-({4-(({5-methyl-2-[methyl(methylsulfonyl)amino]pyridin-3-yl}methyl)amino]-5-(trifluoromethyl)pyrimidin-2-yl}amino)benzamide]	0.6
CN(C)C(=O)CNC(=O)c1ccc(Nc2ncc(C(F)(F)F)c(NCc3cccnc3N(C)S(C)(=O)=O)n2)cc1 [Compound 259, N-[2-(dimethylamino)-2-oxoethyl]-4-({4-[({2-[methyl(methylsulfonyl)amino]pyridin-3-yl}methyl)amino]-5-(trifluoromethyl)pyrimidin-2-yl}amino)benzamide]	1.57
CN(c1ncccc1CNc1nc(Nc2ccc(CNCCO)cc2)ncc1C(F)(F)F)S(C)(=O)=O [Compound 383, N-{3-[({2-[(4-{[(2-hydroxyethyl)amino]methyl}phenyl)amino]-5-(trifluoromethyl)pyrimidin-4-yl}amino)methyl]pyridin-2-yl}-N-methylmethane-sulfonamide]	< 0.595
CN(c1ncccc1CNc1nc(Nc2ccc(C(=O)N3CCCC3)cc2)ncc1C(F)(F)F)S(C)(=O)=O [Compound 237, N-methyl-N-[3-({[2-{[4-(pyrrolidin-1-ylcarbonyl)phenyl]amino}-5-(trifluoromethyl)pyrimidin-4-yl]amino}methyl)pyridin-2-yl]methanesulfonamide]	2.05
CN(c1nccnc1CNc1nc(Nc2ccc(C(N)=O)c(O)c2)ncc1C(F)(F)F)S(C)(=O)=O [Compound 395, 2-hydroxy-4-({4-(({3-[methyl(methylsulfonyl)amino]pyrazin-2-yl}methyl)amino]-5-(trifluoromethyl)pyrimidin-2-yl}amino)benzamide]	0.849
Cc1ncc(CNc2nc(Nc3ccccc3)ncc2C(F)(F)F)c(N(C)S(C)(=O)=O)n1 [Compound 79, N-[5-({[2-anilino-5-(trifluoromethyl)pyrimidin-4-yl]amino}methyl)-2-methylpyrimidln-4-yl]-N-methylmethanesulfonamide]	2.62
CN(C)CCNC(=O)c1ccc(Nc2ncc(C(F)(F)F)c(NCc3cccnc3N(C)S(C)(=O)=O)n2)cc1 [Compound 251, N-[2-(dimethylamino)ethyl]-4-({4-[({2-[methyl(methylsulfonyl)amino]pyridin-3-yl}methyl)amino]-5-(trifluoromethyl)pyrimidin-2-yl}amino)benzamide]	1.21
Cc1cc(C(N)=O)ccc1Nc1ncc(C(F)(F)F)c(NCc2cccnc2N(C)S(C)(=O)=O)n1 [Compound 342, 3-methyl-4-({4-[({2-[methyl(methylsulfonyl)amino]pyridin-3-yl}methyl)amino]-5-(trifluoromethyl)pyrimidin-2-yl}amino)benzamide]	1.03
CCCN(CCO)C(=O)c1cccc(Nc2ncc(C(F)(F)F)c(NCc3cccnc3N(C)S(C)(=O)=O)n2)c1 [Compound 193, N-(2-hydroxyethyl)-3-({4-[({2-[methyl(methylsulfonyl)amino]pyridin-3-yl}methyl)amino]-5-(trifluoromethyl)pyrimidin-2-yl}amino)-N-propylbenzamide]	1.1
C[C@H]1COCCN1C(=O)c1cccc(Nc2ncc(C(F)(F)F)c(NCc3cccnc3N(C)S(C)(=O)=O)n2)c1 [Compound 143, N-methyl-N-{3-[({2-[(3-{[(3S)-3-methylmorpholin-4-yl]carbonyl}phenyl)amino]-5-(trifluoromethyl)pyrimidin-4-yl}amino)methyl]pyridin-2-yl}methanesulfonamide]	2.4
CC(=O)NCc1cccc(Nc2ncc(C(F)(F)F)c(NCc3cccnc3N(C)S(C)(=O)=O)n2)c1 [Compound 218, N-[3-({4-[({2-[methyl(methylsulfonyl)amino]pyridin-3-yl}methyl)amino]-5-(trifluoromethyl)pyrimidin-2-yl}amino)benzyl]acetamide]	0.6
CC(=O)N1CC[C@@H](Nc2ncc(C(F)(F)F)c(NCc3cccnc3N(C)S(C)(=O)=O)n2)C1 [Compound 39, N-[3-({[2-{[(3R)-1-acetylpyrrolidin-3-yl]amino}-5-(trifluoromethyl)pyrimidin-4-yl]amino}methyl)pyridin-2-yl]-N-methylmethane-sulfonamide]	1000
CN(c1ncccc1CNc1nc(NC2CCN(C(=O)CC(F)(F)F)CC2)ncc1C(F)(F)F)S(C)(=O)=O [Compound 58, N-methyl-N-[3-({[5-(trifluoromethyl)-2-{[1-(3,3,3-trifluoropropanoyl)piperidin-4-yl]amino}pyrimidin-4-yl]amino}methyl)pyridin-2-yl]methanesulfonamide]	165
Cc1ccc(N(C)S(C)(=O)=O)c(CNc2nc(Nc3ccc(C(N)=O)cc3)ncc2C(F)(F)F)c1 [Compound 110, 4-{[4-({5-methyl-2-[methyl(methylsulfonyl)amino]benzyl}amino)-5-(trifluoromethyl)pyrimidin-2-yl]amino}benzamide]	0.6
CN(c1ncccc1CNc1nc(Nc2ccc(C(=O)N3CC[C@H](O)C3)cc2)ncc1C(F)(F)F)S(C)(=O)=O [Compound 267, N-{3-[({2-[(4-{[(3S )-3-hydroxypyrrolidin-1-yl]carbonyl}phenyl)amino]-5-(trifluoromethyl)pyrimidin-4-yl}amino)methyl]pyridin-2-yl}-N-methylmethane-sulfonamide]	1.15
CN(c1ncccc1CNc1nc(Nc2ccc(C(=O)N3CCC(F)(F)C3)cc2)ncc1C(F)(F)F)S(C)(=O)=O [Compound 266, N-[3-({[2-({4-[(3.3-difluoropyrrolidin-1-yl)carbonyl]phenyl}amino)-5-(trifluoromethyl)pyrimidin-4-yl]amino}methyl)pyridin-2-yl]-N-methylmethane-sulfonamide]	0.6
CN(c1ncccc1CNc1nc(Nc2cccc(C(=O)N3CCC(F)(F)C3)c2)ncc1C(F)(F)F)S(C)(=O)=O [Compound 177, N-[3-({(2-({3-[(3,3-difluoropyrrolidin-1-yl)carbonyl]phenyl}amino)-5-(trifluoromethyl)pyrimidin-4-yl]amino}methyl)pyridin-2-yl]-N-methylmethane-sulfonamide]	5.93
CN(c1nccnc1CNc1nc(Nc2ccc(F)c(C(N)=O)c2)ncc1C(F)(F)F)S(C)(=O)=O [Compound 382, 2-fluoro-5-({4-[({3-[methyl(methylsulfonyl)amino]pyrazin-2-yl}methyl)amino]-5-(trifluoromethyl)pyrimidin-2-yl}amino)benzamide]	10.7
CN(c1ncccc1CNc1nc(Nc2ccc(CC(=O)NC3CC3)cc2)ncc1C(F)(F)F)S(C)(=O)=O [Compound 217, N-cyclopropyl-2-[4-({4-[({2~ [methyl(methylsulfonyl)amino]pyridin-3-yl}methyl)amino]-5-(trifluoromethyl)pyrimidin-2-yl}amino)phenyl]acetamide]	0.6
CN(c1ncccc1CNc1nc(Nc2cccc(C(=O)N3CC(O)C3)c2)ncc1C(F)(F)F)S(C)(=O)=O [Compound 90, N-[3-({[2-({3-{(3-hydroxyazetidin-1-yl)carbonyl]phenyl}amino)-5-(trifluoromethyl)pyrimidin-4-yl]amino}methyl)pyridin-2-yl]-N-methylmethane-sulfonamide]	0.72
COc1cc(C(N)=O)ccc1Nc1ncc(C(F)(F)F)c(NCc2ccc(C)nc2N(C)S(C)(=O)=O)n1 [Compound 49, 3-methoxy-4-({4-[({6-methyl-2-[methyl(methylsulfonyl)-amino]pyridin-3-yl}methyl)amino]-5-(trifluoromethyl)pyrirnidin-2-yl}amino)benzamide]	0.59
CN(c1cccnc1CNc1nc(Nc2cccc(C(N)=O)c2)ncc1C(F)(F)F)S(C)(=O)=O [Compound 295, 3-({4-[({3-[methyl(methylsulfonyl)amino]pyridin-2-yl}methyl)amino]-5-(trifluoromethyl)pyrimidin-2-yl}amino)benzamide]	1.33
CN(c1ncccc1CNc1nc(Nc2ccc(C(=O)NCCCCCO)cc2)ncc1C(F)(F)F)S(C)(=O)=O [Compound 270, N-(5-hydroxypentyl)-4-({4-[({2-[methyl(methylsulfonyl)amino]pyridin-3-yl}methyl)amino]-5-(trifluoromethyl)pyrimidin-2-yl}amino)benzamide]	0.99
COCCNCc1ccc(Nc2ncc(C(F)(F)F)c(NCc3cccnc3N(C)S(C)(=O)=O)n2)cc1 [Compound 388, N-{3-[({2-((4-{[(2-methoxyethyl)amino]methyl}phenyl)amino]-5-(trifluoromethyl)pyrimidin-4-yl}amino)methyl]pyridin-2-yl}-N-methylmethane-sulfonamide]	< 0.595
CN(c1ncccc1CNc1nc(Nc2ccc(C(=O)NCC3(O)CCC3)cc2)ncc1C(F)(F)F)S(C)(=O)=O [Compound 246, N-[(1-hydroxycyclobutyl)methyl]-4-({4-[({2-[methyl(methylsulfonyl)amino]pyridin-3-yl}methyl)amino]-5-(trifluoromethyl)pyrimidin-2-yl}amino)benzamide]	0.6
CCC(=O)Nc1cccc(Nc2ncc(C(F)(F)F)c(NCc3cccnc3N(C)S(C)(=O)=O)n2)c1 [Compound 371, N-(3-({4-[({2-[methyl(methylsulfonyl)amino]pyridin-3-yl}methyl)amino]-5-(trifluoromethyl)pyrimidin-2-yl}amino)phenyl]propanamide]	1.94
